Data from patent US10464890B2, “PGAM1 inhibitors and methods related thereto” (Emory University, priority 2011, dated 2019).

Assays:
[1] = tested on: H1299 cells; experiment: Cell proliferation assay, H1299; assay type: cell-based, human
Experimental: For leukemia cell proliferation assay, 10×10^4 cells were seeded in non-tissue culture coated 6-well plate and incubated at 37° C. for indicated times. Cell numbers were counted by trypan blue exclusion under a microscope (×40) at indicated times and the percentage of cell proliferation was determined by comparing PGAM1 knockdown cells to pLKO.1 vector expressing cells. […] Cell viability was determined by counting drug-treated cells compared to DMSO-treated control cells with trypan blue exclusion under a microscope (×40) and by using CellTiter96Aqueous One solution proliferation kit (Promega). For adherent cell proliferation assay such as H1299 and MDA-MB231 cells, 5×10^4 cells were seeded in 6-well plate 24 h before the assay starts and were cultured at 37° C. 24 h after seeding, cells were treated with 5 μM Methyl-2PG and incubated at 37° C. for indicated times. Cell proliferation was determined by the increase in cell number indicated times after the treatment starts compared to that at the treatment starts for each cell line (T=0). Cell numbers were counted by trypan blue exclusion under a microscope (×40). For adherent cell viability assay with trypan blue exclusion, 5×10^4 cells were seeded in 6-well plate 24 h before the assay starts and were cultured at 37° C. […] Cell viability was determined by counting drug-treated cells compared to DMSO-treated control cells with trypan blue exclusion under a microscope (×40). For MTT cell viability assay of adherent cells, 5×10^3 cells were seeded in 96-well plate 24 h before the assay starts and were cultured at 37° C. […] Cell viability was determined by using CellTiter96Aqueous One solution proliferation kit (Promega).

[2] = tested on: H1299 cells; experiment: 14C-lipid synthesis and 14C-RNA synthesis assays; assay type: cell-based, human
Experimental: ^14C-lipids synthesized from ^14C-glucose were measured. […] Wells were washed with an additional 500 μL of hexane:isopropanol solution, and extracts were combined and air dried with heat. Extracted lipids were resuspended in 50 μL of chloroform, and subjected to scintillation counting. Scintillation counts were normalized with cell numbers counted by a microscope (×40). ^14C-RNA synthesized from ^14C-glucose was measured. […] RNA was then extracted using RNeasy columns (Qiagen) and ^14C-RNA was assayed by scintillation counter. ^14C counts for each sample were normalized by the amount of RNA.

[3] = tested on: H1299 cells; experiment: Oxidative PPP flux assay using 14CO2 release; assay type: cell-based, human
Experimental: Cells were seeded on 6-cm dishes that are placed in a 10-cm dish with 2 sealed pinholes on the top. ^14CO2 released from cells was collected by completely sealing the 10-cm dish, in which the cells on the 6-cm dish were incubated in 2 ml of medium containing [1-^14C]- or [6-^14C]-glucose, respectively, at a final specific activity of 10 μCi/ml glucose at 37° C. for 3 h. The oxidative PPP flux was stopped by injecting 0.3 ml of 50% TCA through one of the holes on the top, and at the same time ^14CO2 released was trapped by injecting 0.3 ml of Hyamine Hydroxide into a small cup placed on the 10-cm dish through the second hole. Krebs cycle measurements, obtained in parallel samples incubated with [6-^14C]-glucose, were used to correct the oxidative PPP flux measurements obtained from samples incubated with [1-^14C]-glucose. Each dish was completely re-sealed with parafilm and incubated overnight at room temperature. Hyamine Hydroxide in the small cup was dissolved into 60% methanol and directly subjected to scintillation counting.

[4] = tested on: human primary leukemia cells; experiment: Primary leukemia cells from human patients; assay type: cell-based
Source text: Approval of use of human specimens was given by the Institutional Review Board of Emory University School of Medicine. All clinical samples were obtained with informed consent with approval by the Emory University Institutional Review Board. Clinical information for the patients was obtained from the pathological files at Emory University Hospital under the guidelines and with approval from the Institutional Review Board of Emory University School of Medicine and according to the Health Insurance Portability and Accountability Act. Only samples from patients that were not previously treated with chemotherapy or radiation therapy were used. Mononuclear cells (MNCs) were isolated from peripheral blood and bone marrow samples from human leukemia patients or peripheral blood samples from healthy donors using lymphocyte separation medium (Cellgro).
Only samples from patients that were not previously treated with chemotherapy or radiation therapy were used. Mononuclear cells (MNCs) were isolated from peripheral blood and bone marrow samples from human leukemia patients or peripheral blood samples from healthy donors using lymphocyte separation medium (Cellgro).

[5] = tested on: H1299 cells; experiment: Lactate production assay; assay type: cell-based, human
Experimental: (§1) Cellular lactate production was measured under normoxia with a fluorescence-based lactate assay kit (MBL). Phenol red-free RPMI medium without FBS was added to a 6 well-plate of subconfluent cells, and was incubated for 1 h at 37° C. After incubation, 1 ml of media from each well was assessed using the lactate assay kit. Cell numbers were counted by a microscope (×40). Oxygen consumption rates were measured with a Clark type electrode equipped with 782 oxygen meter (Strathkelvin Instruments). 1×10^7 cells were resuspended in RPMI 1640 medium with 10% FBS and placed into a water-jacked chamber RC300 (Strathkelvin Instruments) and recording was started immediately. Intracellular ATP concentration was measured by an ATP bioluminescent somatic cell assay kit (Sigma). 1×10^6 cells were trypsinized and resuspended in ultrapure water. Luminescence was measured with spectrofluorometer (SPECTRA Max Gemini; […]) immediately after the addition of ATP enzyme mix to cell suspension.

[6] = tested on: H1299 cells; experiment: Intracellular ATP assay; assay type: cell-based, human
Experimental: as §1

[7] = H1299 PGAM1 knockdown cells, methyl-2-PG
[8] = H1299 cells with stable knockdown of PGAM1, methyl-2-PG
[9] = H1299 cells treated with PGMI-004A
[10] = primary leukemia cells from a representative AML patient
[11] = samples from 7 out of 8 leukemia patients

Row | Compound | cell proliferation [1, 7] | biosynthesis of RNA and lipids [2, 7] | oxidative PPP flux [3, 7] | cell viability in PGMI-004A-treated primary leukemia cells ([4]; representative AML patients, methyl-2-PG added to PGMI-004A) | lactate production [5, 8] | intracellular ATP levels [6, 8] | cell proliferation ([1]; H1299 cells) | biosynthesis of RNA [2, 9] | biosynthesis of lipids [2, 9] | oxidative PPP flux [3, 9] | 2-PG levels [4, 10] | 3-PG levels [4, 10] | PGAM1 activity [4, 11] | cell viability [4, 11] | lactate production [4, 11] | lactate production [5, 9] | intracellular ATP levels [6, 9]
1 | COC(=O)[C@@H](CO)OP(=O)(O)O [methyl-2-PG, methyl ester of D(+)-2-phosphoglyceric acid, reference compound] | partially restores the reduced cell proliferation | rescues | rescues the decreased oxidative PPP flux | rescues the decreased cell viability | rescues the reduced lactate production | no significant effect on intracellular ATP levels | – | – | – | – | – | – | – | – | – | – | –
2 | O=C1c2ccccc2C(=O)c2c1cc(S(=O)(=O)Nc1ccc(C(F)(F)F)cc1)c(O)c2O [PGMI-004A, N-(4-trifluoromethyl)-penyl-3,4-dihydroxy-9,10-dioxo-2-anthracenesulfonamide] | – | – | – | – | – | – | reduced | reduced | reduced | decreased oxidative PPP flux | decreased | increased | reduced PGAM1 activity | decreased cell viability | reduced | significantly reduced lactate production | no significant effect on intracellular ATP levels
